Experimental data: patent US20080255117A1, “SULFONYLTRYPTOPHANOLS” (priority 2007, published 2008)

Target: T1, human FSH receptor (Homo sapiens, UniProt P23945)
T1 construct: expressed in transfected cells; host or cells: CHO cells (hFSHR clone 16)
T1 sequence (P23945 18-695): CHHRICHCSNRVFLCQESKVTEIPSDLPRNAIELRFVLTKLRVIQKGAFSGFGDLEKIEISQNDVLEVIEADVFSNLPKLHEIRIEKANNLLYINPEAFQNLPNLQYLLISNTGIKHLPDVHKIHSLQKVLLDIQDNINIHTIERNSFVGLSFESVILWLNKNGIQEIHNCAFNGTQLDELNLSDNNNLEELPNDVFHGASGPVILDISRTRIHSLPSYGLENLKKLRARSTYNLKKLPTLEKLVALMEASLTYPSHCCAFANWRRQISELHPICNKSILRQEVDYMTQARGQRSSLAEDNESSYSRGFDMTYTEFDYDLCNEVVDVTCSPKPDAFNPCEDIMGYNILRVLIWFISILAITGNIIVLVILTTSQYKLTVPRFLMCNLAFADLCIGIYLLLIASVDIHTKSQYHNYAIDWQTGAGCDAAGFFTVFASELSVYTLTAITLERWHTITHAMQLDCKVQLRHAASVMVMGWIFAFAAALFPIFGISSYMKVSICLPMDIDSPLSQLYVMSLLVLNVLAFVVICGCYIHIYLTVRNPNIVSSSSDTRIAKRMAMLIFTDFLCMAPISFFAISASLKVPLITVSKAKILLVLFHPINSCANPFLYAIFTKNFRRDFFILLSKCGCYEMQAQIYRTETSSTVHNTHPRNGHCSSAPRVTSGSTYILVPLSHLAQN
Test: HTRF assay for measuring cAMP in cells (FSH antagonism)
Format: cell-based
Conditions: FSH antagonistic effect in the HTRF assay; hFSHR clone 16 cells (CHO cells stably transfected with the human FSH receptor); in the presence of 1e-9 mol/l hFSH
Method: HTRF Assay for Measuring cAMP in Cells
The method is based on a competitive immunoassay between native cAMP, which has been produced by the cells, and cAMP which is labelled with cAMPD2 conjugate. The tracer binding was visualized by a monoclonal antibody, anti-cAMP labelled with cryptate [HTRF=homogeneous time-resolved fluorescence].
The specific signal is inversely proportional to the cAMP concentration of the samples employed.
The 665 nm/620 nm fluorescence ratio was evaluated.
The following material was used: 96-well plates for the tissue culture, 96-well plates with black edge and black base (e.g. Fluotrac 600 from Greiner), 96-well plates for the substance dilutions of polypropylene and cAMP Femtomolar (4000 wells Kit, CIS Bio International # 62AM5PEJ).
The following reagents were used: BSA (bovine serum albumin) Fraction V protease-free, IBMX (3-isobutyl-1-methylxanthine), hFSH (human follicle stimulating hormone), Triton X-100 analytical grade, potassium fluoride analytical grade, G 418 (Geneticin) and Accutase.
Buffer 1 (washing and testing buffer) contained PBS, 1 mM CaCl2, 1 mM MgCl2, 0.2% glucose; 0.1% BSA, 1 mM IBMX. […]
The values of the well ratio were averaged and then entered directly in SigmaPlot versus the concentrations. The maximum and minimum values were determined for each plate, and half the difference is to be regarded as IC50.

Row | IC50 | SMILES
1 | 10 µM | N#CCc1ccc(-c2cc3c(c(S(=O)(=O)N[C@@H](CO)Cc4c[nH]c5ccccc45)c2)OCC3)cc1 [Example 52, 5-(4-Cyanomethyl-phenyl)-2,3-dihydro-benzofuran-7-sulfonic acid [(R)-2-hydroxy-1-(1H-indol-3-ylmethyl)-ethyl]-amide]
2 | 5 µM | O=S(=O)(N[C@@H](CO)Cc1c[nH]c2ccccc12)c1cc(-c2ccc3ncccc3c2)cc2c1OCC2 [Example 39, 5-Quinolin-6-yl-2,3-dihydro-benzofuran-7-sulfonic acid [(R)-2-hydroxy-1-(1H-indol-3-ylmethyl)-ethyl]-amide]
